Measurements as given in US9174951B2, “Glucose transporter inhibitors” (The Ohio State University Research Foundation, priority 2012, dated 2015).

Legend:
[1] = target: T1, GLUT3 (Homo sapiens, UniProt P11169); test: [3H]2-DG uptake into LNCaP cells overexpressing GLUT3; assay type: cell-based; conditions: for inhibition at 5 µM: LNCaP cells transfected with GLUT3, 30 min
T1 construct: GLUT3 ORF cDNA was purchased from Origene Technologies; EGFP (from the pEGFP-N2 vector); host or cells: LNCaP
T1 sequence (P11169 1-496): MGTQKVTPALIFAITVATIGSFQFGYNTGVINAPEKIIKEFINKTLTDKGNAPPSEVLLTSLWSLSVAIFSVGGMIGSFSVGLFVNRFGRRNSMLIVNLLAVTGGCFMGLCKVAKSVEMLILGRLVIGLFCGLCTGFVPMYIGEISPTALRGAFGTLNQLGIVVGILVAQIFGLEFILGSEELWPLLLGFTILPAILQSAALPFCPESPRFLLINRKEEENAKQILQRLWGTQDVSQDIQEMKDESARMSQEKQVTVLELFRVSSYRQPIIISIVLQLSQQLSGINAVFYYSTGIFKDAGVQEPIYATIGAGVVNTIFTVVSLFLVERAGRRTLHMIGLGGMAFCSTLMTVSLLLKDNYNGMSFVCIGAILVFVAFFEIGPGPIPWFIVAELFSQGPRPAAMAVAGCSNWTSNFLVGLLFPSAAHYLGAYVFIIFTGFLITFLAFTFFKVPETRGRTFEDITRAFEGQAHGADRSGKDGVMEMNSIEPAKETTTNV
Excerpt: (§1) As information regarding the expression pattern of individual GLUT members in LNCaP cells was lacking, quantitative real time polymerase chain reaction (qRT-PCR) was used to assess the mRNA levels of the hypoxia-responsive GLUT1 and GLUT3, and three other representative GLUT members, including the class I GLUT2 and GLUT4 and the class II GLUT9. Among these five members, LNCaP cells expressed GLUT1 and, to a much lesser extent, GLUT9, while the mRNA levels of GLUTs2-4 were negligible (FIG. 3B). To examine the isoform specificity of these inhibitors, LNCaP cells were ectopically transfected with plasmids encoding GLUT1, GLUT3, GLUT4, or GLUT9 vis-à-vis the pCMV control vector so that the increased glucose uptake in GLUT-transfected cells relative to pCMV control cells was indicative of the activity of the ectopically expressed GLUT protein.
(§2) Glucose Uptake Assay. LNCaP cells were seeded in six-well plates (3×10^5 cells/well) for 24 h. Cells were washed twice with Krebs-Ringer phosphate buffer (126 mM NaCl, 2.5 mM KCl, 25 mM NaHCO3, 1.2 mM NaH2PO4, 1.2 mM MgCl2, 2.5 mM CaCl2, pH 7.4) and were then treated with individual agents in Krebs-Ringer phosphate buffer. After 1.5 h, glucose uptake was initiated by adding 1 mL Krebs-Ringer buffer containing […] [^3H]2-DG (PerkinElmer Life Science) and […] non-radioactive 2-DG and was terminated by washing with cold PBS. The cells were lysed in […] lysis buffer (10 mM Tris-HCl pH 8.0, 0.1% SDS) and aliquots were taken for measurement of radioactivity using a scintillation counter (Beckman LS6500).
(§3) Plasmid Construction, Transient Transfection and Immunoblotting. The full length GLUT1, GLUT4, and GLUT9 ORF cDNA clones were purchased from Addgene (Cambridge, Mass.) and GLUT3 ORF cDNA was purchased from Origene Technologies (Rockville, Md.). GLUT1, GLUT3, and GLUT9 were subcloned into the HindIII/SalI sites and GLUT4 was subcloned into the EcoRI/SalI sites of pEGFP-N2 expression vector (Clontech, Palo Alto, Calif.). […]

[2] = system: LNCaP cells; test: MTT cell viability assay, LNCaP; assay type: cell-based, human; conditions: for IC50: 72 h, MTT, 10% FBS
Protocol: Cell Viability Assay. Cell viability was determined using the 3-(4,5-dimethylthiazol-2-yl)-2,5-diphenyltetrazolium bromide (MTT) assay. Cancer cells were seeded at 5000 cells/well and normal cells were seeded at 8000 cells/well in 96-well plates and incubated in 10% FBS-supplemented medium for 24 h. Cells were then treated with individual agents for 72 h. Drug-containing medium was replaced with medium containing MTT (0.5 mg/mL), followed by incubation at 37° C. for 1 h. After removal of medium, the reduced MTT dye in each well was solubilized in 100 μL of DMSO and absorbance at 570 nm was measured.
Compound 30 was evaluated for antiproliferative activity in panels of different human cancer cells lines, including those of prostate, breast and pancreatic cancers. In all experiments, cells were treated with a range of concentrations of Compound 30 in the presence of 10% fetal bovine serum (FBS). Cell viability was then determined after 72 h of treatment using the 3-(4,5-dimethylthiazol-2-yl)-2,5-diphenyltetrazolium bromide (MTT) assay. […] It is noteworthy that despite this high antiproliferative potency, normal human prostate epithelial cells (PrECs) were resistant to the cytotoxic effect of Compound 30 even at 10 μM.

[3] = target: T2, GLUT9 (Homo sapiens, UniProt Q9NRM0); test: [3H]2-DG uptake into LNCaP cells overexpressing GLUT9; assay type: cell-based; conditions: for inhibition at 5 µM: LNCaP cells transfected with GLUT9, 30 min
T2 construct: The full length GLUT1, GLUT4, and GLUT9 ORF cDNA clones were purchased from Addgene; EGFP (from the pEGFP-N2 vector); host or cells: LNCaP
T2 sequence (Q9NRM0 1-540): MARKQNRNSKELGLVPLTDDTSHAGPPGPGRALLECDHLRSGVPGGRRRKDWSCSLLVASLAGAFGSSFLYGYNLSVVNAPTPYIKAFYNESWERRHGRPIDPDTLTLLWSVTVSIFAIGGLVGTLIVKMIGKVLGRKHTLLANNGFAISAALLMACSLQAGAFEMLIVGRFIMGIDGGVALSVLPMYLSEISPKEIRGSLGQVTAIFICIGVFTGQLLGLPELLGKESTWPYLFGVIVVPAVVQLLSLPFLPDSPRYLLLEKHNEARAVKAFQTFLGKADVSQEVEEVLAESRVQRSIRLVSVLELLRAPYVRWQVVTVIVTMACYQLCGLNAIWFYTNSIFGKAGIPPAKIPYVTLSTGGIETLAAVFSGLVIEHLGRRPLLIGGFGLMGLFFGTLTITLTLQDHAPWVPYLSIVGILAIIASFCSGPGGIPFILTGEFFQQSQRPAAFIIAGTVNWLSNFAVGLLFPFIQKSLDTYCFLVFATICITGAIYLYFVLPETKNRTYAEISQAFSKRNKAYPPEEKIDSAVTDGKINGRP
Excerpt: as §1, §2, §3

inhibition at 5 µM [1] [%] | IC50 ([2]; Homo sapiens, LNCaP) [µM] | inhibition at 5 µM [3] [%] | IC50 ([1]; LNCaP cells overexpressing GLUT3, read-out: IC50 for GLUT3-mediated [3H]2-DG uptake) [µM] | IC50 [2] [µM] | improvement over compound 1 (IC50, [3H]-2DG uptake and viability of LNCaP cells) ([2]; relative to compound 1) [fold] | IC50 ([3]; LNCaP cells overexpressing GLUT9, read-out: IC50 for GLUT9-mediated [3H]2-DG uptake) [µM] | SMILES
41 | 4.2 | 26 | – | – | – | – | CCC(CC)CN1C(=O)S/C(=C\c2ccc(O)c(C(F)(F)F)c2)C1=O [Compound 5]
48 | 1.5 | 34 | ≥ 5 | 1.5 to 1.7 | 40 | ≥ 5 | CC(CN1C(=O)S/C(=C\c2ccc(O)c(C(F)(F)F)c2)C1=O)(CC(F)(F)F)CC(F)(F)F [Compound 30, 5-(4-Hydroxy-3-trifluoromethyl-benzylidene)-3-[4,4,4-trifluoro-2-methyl-2-(2,2,2-trifluoro-ethyl)-butyl]-thiazolidine-2,4-dione]
